ChEMBL document CHEMBL3046039, “In vivo antidiabetic activity and in silico studies on adenosine monophosphate-activated protein kinase (AMPK) of (2E,5E)-2,5-bis(4-hydroxy-3-methoxybenzylidene) cyclopentanone” (2013)
Activity calls are given as the source filed them. The rule behind the calls is not given here.

Experiments:
Rattus norvegicus [1] = test: In vivo antidiabetic activity in streptozotocin-induced diabetic Wistar Rattus norvegicus (rat) assessed as serum VLDL-cholesterol level at 0.5 mg/kg, po for 7 days by spectrophotometric analysis (reference value: 28.12 +/-1.5 mg/dl); type: functional
Rattus norvegicus [2] = test: In vivo antidiabetic activity in streptozotocin-induced diabetic Wistar Rattus norvegicus (rat) assessed as serum triglyceride level at 0.5 mg/kg, po for 7 days by spectrophotometric analysis (reference value: 128.77 +/-6.3 mg/dl); type: functional
Rattus norvegicus [3] = test: Increase in glucose tolerance in fasted normoglycemic Wistar Rattus norvegicus (rat) assessed as suppression of blood glucose AUC at 10 mg/kg, po measured at 30-120 min post-glucose challenge by oral glucose tolerance test; type: functional, organism-based; set-up: dose 10 mg/kg
Rattus norvegicus [4] = test: In vivo antidiabetic activity in streptozotocin-induced diabetic Wistar Rattus norvegicus (rat) assessed as reduction in serum glucose level at 10 mg/kg, po measured after 4 hr by glucose oxidase method; type: functional, organism-based; set-up: dose 10 mg/kg
Rattus norvegicus [5] = test: In vivo antidiabetic activity in streptozotocin-induced diabetic Wistar Rattus norvegicus (rat) assessed as reduction in serum glucose level at 0.5 mg/kg, po for 7 days measured at 30 to 120 min post-glucose challenge by oral glucose tolerance test; type: functional, organism-based; set-up: dose 0.5 mg/kg
Rattus norvegicus [6] = test: In vivo antidiabetic activity in streptozotocin-induced diabetic Wistar Rattus norvegicus (rat) assessed as serum total cholesterol level at 0.5 mg/kg, po for 7 days by spectrophotometric analysis (reference value: 126.62 +/-4.7 mg/dl); type: functional
Rattus norvegicus [7] = test: In vivo antidiabetic activity in streptozotocin-induced diabetic Wistar Rattus norvegicus (rat) assessed as serum LDL-cholesterol level at 0.5 mg/kg, po for 7 days by spectrophotometric analysis (reference value: 80.75 +/-3.4 mg/dl); type: functional
Rattus norvegicus [8] = test: In vivo antidiabetic activity in streptozotocin-induced diabetic Wistar Rattus norvegicus (rat) assessed as serum HDL-cholesterol level at 0.5 mg/kg, po for 7 days by spectrophotometric analysis (reference value: 17.52 +/-2.1 mg/dl); type: functional
Rattus norvegicus [9] = test: In vivo antidiabetic activity in streptozotocin-induced diabetic Wistar Rattus norvegicus (rat) assessed as serum VLDL-cholesterol level at 25 mg/kg, po for 7 days by spectrophotometric analysis (reference value: 28.12 +/-1.5 mg/dl); type: functional
Rattus norvegicus [10] = test: In vivo antidiabetic activity in streptozotocin-induced diabetic Wistar Rattus norvegicus (rat) assessed as serum HDL-cholesterol level at 25 mg/kg, po for 7 days by spectrophotometric analysis (reference value: 17.52 +/-2.1 mg/dl); type: functional
Rattus norvegicus [11] = test: Increase in glucose tolerance in fasted normoglycemic Wistar Rattus norvegicus (rat) assessed as suppression of blood glucose AUC at 25 mg/kg, po measured at 30-120 min post-glucose challenge by oral glucose tolerance test; type: functional, organism-based; set-up: dose 25 mg/kg
Rattus norvegicus [12] = test: In vivo antidiabetic activity in streptozotocin-induced diabetic Wistar Rattus norvegicus (rat) assessed as serum triglyceride level at 25 mg/kg, po for 7 days by spectrophotometric analysis (reference value: 128.77 +/-6.3 mg/dl); type: functional
Rattus norvegicus [13] = test: In vivo antidiabetic activity in streptozotocin-induced diabetic Wistar Rattus norvegicus (rat) assessed as reduction in serum glucose level at 25 mg/kg, po for 7 days measured at 30 to 120 min post-glucose challenge by oral glucose tolerance test; type: functional, organism-based; set-up: dose 25 mg/kg
Rattus norvegicus [14] = test: In vivo antidiabetic activity in streptozotocin-induced diabetic Wistar Rattus norvegicus (rat) assessed as serum total cholesterol level at 25 mg/kg, po for 7 days by spectrophotometric analysis (reference value: 126.62 +/-4.7 mg/dl); type: functional
Rattus norvegicus [15] = test: In vivo antidiabetic activity in streptozotocin-induced diabetic Wistar Rattus norvegicus (rat) assessed as serum LDL-cholesterol level at 25 mg/kg, po for 7 days by spectrophotometric analysis (reference value: 80.75 +/-3.4 mg/dl); type: functional
Rattus norvegicus [16] = test: In vivo antidiabetic activity in streptozotocin-induced diabetic Wistar Rattus norvegicus (rat) assessed as reduction in serum glucose level at 25 mg/kg, po measured after 2 to 4 hr by glucose oxidase method; type: functional, organism-based; set-up: dose 25 mg/kg
Rattus norvegicus [17] = test: Increase in sucrose tolerance in fasted normoglycemic Wistar Rattus norvegicus (rat) assessed as reduction in serum glucose level at 25 mg/kg, po measured at 30-120 min post-sucrose challenge by oral sucrose tolerance test; type: functional, organism-based; set-up: dose 25 mg/kg
Rattus norvegicus [18] = test: Increase in sucrose tolerance in fasted normoglycemic Wistar Rattus norvegicus (rat) assessed as reduction in serum glucose level at 7 mg/kg, po measured at 30-120 min post-sucrose challenge by oral sucrose tolerance test; type: functional, organism-based; set-up: dose 7 mg/kg

For `COc1ccc(Cl)cc1C(=O)NCCc1ccc(S(=O)(=O)NC(=O)NC2CCCCC2)cc1` [GLYBURIDE], the Activity (Rattus norvegicus [1]) was 19.4 mg/dL, the Activity (Rattus norvegicus [2]) was 87.4 mg/dL and the Activity (Rattus norvegicus [3]) was “Active”. For the same molecule, the inhibition (Rattus norvegicus [4]) was “Active”, the inhibition (Rattus norvegicus [5]) was “Active” and the Activity (Rattus norvegicus [6]) was 81.9 mg/dL. The Activity (Rattus norvegicus [7]) was 39.5 mg/dL and the Activity (Rattus norvegicus [8]) was 27.3 mg/dL.

With `COc1cc(/C=C2\CC/C(=C\c3ccc(O)c(OC)c3)C2=O)ccc1O` the Activity (Rattus norvegicus [9]) was 20.98 mg/dL, the Activity (Rattus norvegicus [10]) was 26.03 mg/dL and the Activity (Rattus norvegicus [11]) was “Active”. The Activity (Rattus norvegicus [12]) was 81.9 mg/dL, the inhibition (Rattus norvegicus [13]) was “Active” and the Activity (Rattus norvegicus [14]) was 80.41 mg/dL. For the same molecule, the Activity (Rattus norvegicus [15]) was 25.4 mg/dL, the inhibition (Rattus norvegicus [16]) was “Active” and the Activity (Rattus norvegicus [17]) was “Active”.

`C[C@H]1O[C@H](O[C@H]2[C@H](O)[C@@H](O)[C@@H](O[C@H]3[C@H](O)[C@@H](O)C(O)O[C@@H]3CO)O[C@@H]2CO)[C@H](O)[C@@H](O)[C@@H]1N[C@H]1C=C(CO)[C@@H](O)[C@H](O)[C@H]1O` (stereo partly drawn) was tested, and the Activity (Rattus norvegicus [18]) was “Active”.
